{"source": "paper PMC4979471", "about": "(Cell Death Discovery, 2015)", "key": {"339 kinases": {"system": "339 kinases", "protocol": "The compound was tested at a single dose in duplicate at 10 μM. Reactions were carried out at 10 μM ATP. Data are reported as % enzyme activity (relative to DMSO controls). The full data set is shown in the Supplementary Table I."}, "recombinant human IDO": {"biological_target": "T1, recombinant human IDO (Homo sapiens, UniProt P14902)", "T1 construct": "purchased R&D Systems (Minneapolis, MN, USA)", "T1 sequence (P14902 whole entry)": "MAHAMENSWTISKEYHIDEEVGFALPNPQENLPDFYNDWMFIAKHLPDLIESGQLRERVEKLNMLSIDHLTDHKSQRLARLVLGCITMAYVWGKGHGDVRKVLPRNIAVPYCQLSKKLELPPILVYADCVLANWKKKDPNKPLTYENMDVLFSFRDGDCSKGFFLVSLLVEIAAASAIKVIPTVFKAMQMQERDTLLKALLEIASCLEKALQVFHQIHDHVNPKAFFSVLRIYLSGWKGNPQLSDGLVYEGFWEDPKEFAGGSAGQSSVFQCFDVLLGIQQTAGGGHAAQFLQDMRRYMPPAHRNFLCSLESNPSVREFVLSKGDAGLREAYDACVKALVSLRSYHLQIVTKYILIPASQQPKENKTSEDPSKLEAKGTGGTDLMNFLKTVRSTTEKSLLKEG", "experiment": "IDO enzymatic assay", "format": "biochemical", "details": "in vitro enzymatic assay", "experimental": "IDO activity was determined as described by Takahashi et al.[25] using recombinant human IDO purchased from R&D Systems (Minneapolis, MN, USA). The yellow pigment derived from kynurenine was measured at 490 nm using the Spectramax microplate reader (Molecular Devices)."}, "GRK6": {"biological_target": "T2, GRK6 (Homo sapiens, UniProt P43250)", "T2 construct": "purchased Reaction Biology Corp", "T2 sequence (P43250 whole entry)": "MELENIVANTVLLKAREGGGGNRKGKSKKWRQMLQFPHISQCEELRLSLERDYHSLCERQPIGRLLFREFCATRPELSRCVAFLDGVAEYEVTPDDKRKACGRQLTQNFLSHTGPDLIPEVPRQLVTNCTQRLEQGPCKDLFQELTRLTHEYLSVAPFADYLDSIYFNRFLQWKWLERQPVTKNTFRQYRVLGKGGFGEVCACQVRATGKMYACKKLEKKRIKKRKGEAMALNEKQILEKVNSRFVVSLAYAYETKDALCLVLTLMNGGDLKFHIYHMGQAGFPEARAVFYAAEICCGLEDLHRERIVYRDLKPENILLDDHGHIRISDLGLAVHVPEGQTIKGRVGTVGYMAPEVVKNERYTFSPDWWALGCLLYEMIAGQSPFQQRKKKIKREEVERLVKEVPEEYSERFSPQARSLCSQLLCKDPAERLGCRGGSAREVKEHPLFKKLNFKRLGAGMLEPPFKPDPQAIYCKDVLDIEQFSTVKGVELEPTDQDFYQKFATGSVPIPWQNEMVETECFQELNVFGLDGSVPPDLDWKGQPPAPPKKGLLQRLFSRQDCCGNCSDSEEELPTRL", "experiment": "Kinase selectivity, P33-radiolabeled assay", "format": "biochemical", "details": "10 μM ATP", "in_short": "(§1)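 Reactions contained 10 μM ATP and 10 μM test compound, each run in duplicate. Kinase activity is expressed as a percentage of DMSO-treated controls.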"}, "MAPKAPK3": {"biological_target": "T3, MAPKAPK3 (Homo sapiens, UniProt Q16644)", "T3 construct": "purchased Reaction Biology Corp", "T3 sequence (Q16644 whole entry)": "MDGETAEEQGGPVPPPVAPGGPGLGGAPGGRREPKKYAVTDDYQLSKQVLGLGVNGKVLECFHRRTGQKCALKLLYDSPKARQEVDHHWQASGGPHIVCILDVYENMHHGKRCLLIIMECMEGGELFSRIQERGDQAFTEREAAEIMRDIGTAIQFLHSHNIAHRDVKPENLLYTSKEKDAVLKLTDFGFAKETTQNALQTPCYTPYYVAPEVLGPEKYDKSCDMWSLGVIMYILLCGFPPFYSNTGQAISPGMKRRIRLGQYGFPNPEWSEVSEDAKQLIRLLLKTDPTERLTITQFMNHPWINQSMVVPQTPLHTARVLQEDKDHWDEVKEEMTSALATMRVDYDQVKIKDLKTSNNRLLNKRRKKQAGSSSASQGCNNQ", "experiment": "Kinase selectivity, P33-radiolabeled assay", "format": "biochemical", "details": "10 μM ATP", "in_short": "as §1"}, "STK33": {"biological_target": "T4, STK33 (Homo sapiens, UniProt Q9BYT3)", "T4 construct": "purchased Reaction Biology Corp", "T4 sequence (Q9BYT3 whole entry)": "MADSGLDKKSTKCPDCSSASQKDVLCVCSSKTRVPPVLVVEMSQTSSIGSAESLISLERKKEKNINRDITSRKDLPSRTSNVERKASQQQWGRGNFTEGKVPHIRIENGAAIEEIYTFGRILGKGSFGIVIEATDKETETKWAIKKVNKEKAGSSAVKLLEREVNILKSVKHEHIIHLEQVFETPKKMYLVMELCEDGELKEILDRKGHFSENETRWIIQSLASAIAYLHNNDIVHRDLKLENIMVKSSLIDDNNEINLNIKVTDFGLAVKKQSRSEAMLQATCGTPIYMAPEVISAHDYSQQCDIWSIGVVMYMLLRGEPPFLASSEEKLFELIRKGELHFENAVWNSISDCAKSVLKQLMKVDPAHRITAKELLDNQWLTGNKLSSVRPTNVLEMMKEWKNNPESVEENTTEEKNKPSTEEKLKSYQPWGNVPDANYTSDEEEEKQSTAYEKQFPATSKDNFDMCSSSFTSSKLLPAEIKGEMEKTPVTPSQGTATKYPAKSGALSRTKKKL", "experiment": "Kinase selectivity, P33-radiolabeled assay", "format": "biochemical", "details": "10 μM ATP", "in_short": "as §1"}, "IRAK1": {"biological_target": "T5, IRAK1 (Homo sapiens, UniProt P51617)", "T5 construct": "purchased Reaction Biology Corp", "T5 sequence (P51617 whole entry)": "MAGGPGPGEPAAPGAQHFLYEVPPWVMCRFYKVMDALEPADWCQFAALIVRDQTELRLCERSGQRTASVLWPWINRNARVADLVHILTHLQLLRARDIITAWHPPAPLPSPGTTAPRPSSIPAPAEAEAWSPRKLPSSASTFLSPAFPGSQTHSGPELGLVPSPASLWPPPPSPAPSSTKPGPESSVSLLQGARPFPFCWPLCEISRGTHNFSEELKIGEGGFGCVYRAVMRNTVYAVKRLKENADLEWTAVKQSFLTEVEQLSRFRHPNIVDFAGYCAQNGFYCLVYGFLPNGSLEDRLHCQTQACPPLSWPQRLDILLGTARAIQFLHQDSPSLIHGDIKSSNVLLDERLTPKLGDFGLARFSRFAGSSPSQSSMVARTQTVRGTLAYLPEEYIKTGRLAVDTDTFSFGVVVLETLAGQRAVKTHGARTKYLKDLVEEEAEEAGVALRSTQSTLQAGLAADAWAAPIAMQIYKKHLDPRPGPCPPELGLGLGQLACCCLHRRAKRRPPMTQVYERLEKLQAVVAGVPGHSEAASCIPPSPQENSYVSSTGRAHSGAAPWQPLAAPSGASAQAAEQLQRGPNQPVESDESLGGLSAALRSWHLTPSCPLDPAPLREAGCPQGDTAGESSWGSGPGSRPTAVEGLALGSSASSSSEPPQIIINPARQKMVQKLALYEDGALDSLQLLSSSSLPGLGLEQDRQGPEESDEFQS", "experiment": "Kinase selectivity, P33-radiolabeled assay", "format": "biochemical", "details": "10 μM ATP", "in_short": "as §1"}, "GSK3a": {"biological_target": "T6, GSK3a (Homo sapiens, UniProt P49840)", "T6 construct": "purchased Reaction Biology Corp", "T6 sequence (P49840 whole entry)": "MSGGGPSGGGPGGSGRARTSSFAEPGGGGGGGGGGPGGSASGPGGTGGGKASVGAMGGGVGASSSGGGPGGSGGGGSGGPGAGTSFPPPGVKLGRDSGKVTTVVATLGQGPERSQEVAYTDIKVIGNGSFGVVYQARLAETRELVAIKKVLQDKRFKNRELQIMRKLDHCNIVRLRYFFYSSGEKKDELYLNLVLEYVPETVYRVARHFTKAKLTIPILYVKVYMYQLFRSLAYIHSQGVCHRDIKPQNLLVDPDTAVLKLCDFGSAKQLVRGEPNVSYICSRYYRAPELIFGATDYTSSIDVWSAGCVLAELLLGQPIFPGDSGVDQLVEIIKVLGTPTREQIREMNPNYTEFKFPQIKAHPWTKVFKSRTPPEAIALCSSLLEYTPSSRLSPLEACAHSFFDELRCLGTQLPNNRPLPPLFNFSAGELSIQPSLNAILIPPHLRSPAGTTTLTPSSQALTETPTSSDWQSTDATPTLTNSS", "experiment": "Kinase selectivity, P33-radiolabeled assay", "format": "biochemical", "details": "10 μM ATP", "in_short": "as §1"}, "ERK7/MAPK15": {"biological_target": "T7, ERK7/MAPK15 (Homo sapiens, UniProt Q8TD08)", "T7 construct": "purchased Reaction Biology Corp", "T7 sequence (Q8TD08 1-544)": "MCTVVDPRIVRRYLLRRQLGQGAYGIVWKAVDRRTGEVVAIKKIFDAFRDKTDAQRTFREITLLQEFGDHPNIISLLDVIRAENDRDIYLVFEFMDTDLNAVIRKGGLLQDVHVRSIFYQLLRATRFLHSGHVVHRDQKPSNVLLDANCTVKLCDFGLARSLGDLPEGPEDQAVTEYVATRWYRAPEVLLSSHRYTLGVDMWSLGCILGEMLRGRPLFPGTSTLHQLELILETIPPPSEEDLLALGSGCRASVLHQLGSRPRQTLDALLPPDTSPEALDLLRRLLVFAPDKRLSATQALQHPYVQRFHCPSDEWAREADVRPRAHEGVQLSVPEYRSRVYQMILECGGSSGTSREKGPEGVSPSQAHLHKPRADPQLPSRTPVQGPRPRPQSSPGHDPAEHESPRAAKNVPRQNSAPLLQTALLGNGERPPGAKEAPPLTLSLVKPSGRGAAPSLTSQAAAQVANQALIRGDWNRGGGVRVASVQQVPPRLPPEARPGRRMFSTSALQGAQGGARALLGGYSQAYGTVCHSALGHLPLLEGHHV", "experiment": "Kinase selectivity, P33-radiolabeled assay", "format": "biochemical", "details": "10 μM ATP", "in_short": "as §1"}, "ALK": {"biological_target": "T8, ALK (Homo sapiens, UniProt Q9UM73)", "T8 construct": "purchased Reaction Biology Corp", "T8 sequence (Q9UM73 19-1620)": "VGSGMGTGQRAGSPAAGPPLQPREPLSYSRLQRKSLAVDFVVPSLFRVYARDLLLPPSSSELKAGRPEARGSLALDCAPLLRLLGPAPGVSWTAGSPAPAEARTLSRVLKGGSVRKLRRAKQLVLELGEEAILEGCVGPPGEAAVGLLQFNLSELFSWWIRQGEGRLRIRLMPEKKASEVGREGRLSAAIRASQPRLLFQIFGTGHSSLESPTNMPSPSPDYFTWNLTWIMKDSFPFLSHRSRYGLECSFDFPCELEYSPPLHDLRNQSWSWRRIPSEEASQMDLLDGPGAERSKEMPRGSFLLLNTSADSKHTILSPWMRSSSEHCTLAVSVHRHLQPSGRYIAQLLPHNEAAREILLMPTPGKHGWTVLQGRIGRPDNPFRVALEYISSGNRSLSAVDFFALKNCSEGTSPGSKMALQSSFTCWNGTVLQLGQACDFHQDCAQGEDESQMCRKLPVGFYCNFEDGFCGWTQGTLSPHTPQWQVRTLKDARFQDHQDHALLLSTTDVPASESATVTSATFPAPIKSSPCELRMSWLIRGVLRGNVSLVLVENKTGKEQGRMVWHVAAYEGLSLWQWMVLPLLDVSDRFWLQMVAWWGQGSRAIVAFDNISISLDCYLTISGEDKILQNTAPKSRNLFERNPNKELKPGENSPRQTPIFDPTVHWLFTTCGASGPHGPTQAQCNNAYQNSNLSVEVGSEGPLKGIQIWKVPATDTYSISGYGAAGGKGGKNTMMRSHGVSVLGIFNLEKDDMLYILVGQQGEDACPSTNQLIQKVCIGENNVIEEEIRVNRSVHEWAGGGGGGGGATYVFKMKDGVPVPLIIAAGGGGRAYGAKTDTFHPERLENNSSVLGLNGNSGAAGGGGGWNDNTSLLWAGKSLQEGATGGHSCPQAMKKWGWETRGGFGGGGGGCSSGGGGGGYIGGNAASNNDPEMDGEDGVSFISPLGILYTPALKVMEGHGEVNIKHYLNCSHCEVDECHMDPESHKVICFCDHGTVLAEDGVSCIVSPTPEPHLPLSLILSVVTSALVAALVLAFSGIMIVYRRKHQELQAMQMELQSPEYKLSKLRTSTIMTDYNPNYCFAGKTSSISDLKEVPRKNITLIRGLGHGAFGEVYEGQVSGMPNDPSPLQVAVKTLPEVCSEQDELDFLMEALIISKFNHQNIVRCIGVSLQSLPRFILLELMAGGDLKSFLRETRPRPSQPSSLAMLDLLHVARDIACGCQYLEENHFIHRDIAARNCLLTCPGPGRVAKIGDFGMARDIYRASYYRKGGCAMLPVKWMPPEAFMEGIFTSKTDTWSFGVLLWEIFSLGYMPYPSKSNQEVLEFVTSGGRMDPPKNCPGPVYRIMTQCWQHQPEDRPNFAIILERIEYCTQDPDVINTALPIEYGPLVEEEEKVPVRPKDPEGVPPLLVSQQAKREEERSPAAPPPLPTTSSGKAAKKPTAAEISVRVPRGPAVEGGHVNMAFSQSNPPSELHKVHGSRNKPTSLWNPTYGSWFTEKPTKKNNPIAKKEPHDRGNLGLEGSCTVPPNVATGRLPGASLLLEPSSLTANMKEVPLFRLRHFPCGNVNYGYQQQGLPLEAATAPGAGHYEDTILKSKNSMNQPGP", "experiment": "Kinase selectivity, P33-radiolabeled assay", "format": "biochemical", "details": "10 μM ATP", "in_short": "as §1"}, "CDK7/cyclin H": {"biological_target": "T9, CDK7/cyclin H (Homo sapiens, UniProt P50613)", "T9 construct": "purchased Reaction Biology Corp", "experiment": "Kinase selectivity, P33-radiolabeled assay", "format": "biochemical", "details": "10 μM ATP", "in_short": "as §1"}, "[1]": {"details": "read-out: % Enzyme Activity (relative to DMSO controls) AVG"}, "[2]": {"details": "read-out: % Enzyme Activity (relative to DMSO controls) Data 1"}, "[3]": {"details": "read-out: % Enzyme Activity (relative to DMSO controls) Data 2"}}, "note": "“Also recorded” adds a separate entry of the source. Read-outs that look alike come from different tables or passages of the source.", "data": [{"smiles": "CC(C)(C)C(=O)N1N=CC[C@H]1c1ccccc1", "note": "[GSK′963]", "values": [{"measurement": "activity against 339 human kinases", "setting": "339 kinases; 10μM, Reaction Biology Corporation", "value": "does not block the activity of any"}, {"measurement": "inhibition against all other kinases tested", "setting": "339 kinases; 10 μM, panel of 339 kinases", "value": "< 50", "unit": "%"}, {"measurement": "effect on IDO activity", "setting": "recombinant human IDO", "value": "lacks measurable activity; also recorded: no effect; also recorded: inactive"}, {"measurement": "remaining activity at 10 µM", "setting": "GRK6; [1]", "value": 104, "unit": "%"}, {"measurement": "remaining activity at 10 µM", "setting": "GRK6; [2]", "value": 104, "unit": "%"}, {"measurement": "remaining activity at 10 µM", "setting": "GRK6; [3]", "value": 103, "unit": "%"}, {"measurement": "remaining activity at 10 µM", "setting": "MAPKAPK3; [1]", "value": 103, "unit": "%"}, {"measurement": "remaining activity at 10 µM", "setting": "MAPKAPK3; [2]", "value": 104, "unit": "%"}, {"measurement": "remaining activity at 10 µM", "setting": "MAPKAPK3; [3]", "value": 103, "unit": "%"}, {"measurement": "remaining activity at 10 µM", "setting": "STK33; [1]", "value": 103, "unit": "%"}, {"measurement": "remaining activity at 10 µM", "setting": "STK33; [2]", "value": 104, "unit": "%"}, {"measurement": "remaining activity at 10 µM", "setting": "STK33; [3]", "value": 102, "unit": "%"}, {"measurement": "remaining activity at 10 µM", "setting": "IRAK1; [1]", "value": 115, "unit": "%"}, {"measurement": "remaining activity at 10 µM", "setting": "IRAK1; [2]", "value": 114, "unit": "%"}, {"measurement": "remaining activity at 10 µM", "setting": "IRAK1; [3]", "value": 116, "unit": "%"}, {"measurement": "remaining activity at 10 µM", "setting": "GSK3a; [1]", "value": 111, "unit": "%"}, {"measurement": "remaining activity at 10 µM", "setting": "GSK3a; [2]", "value": 107, "unit": "%"}, {"measurement": "remaining activity at 10 µM", "setting": "GSK3a; [3]", "value": 114, "unit": "%"}, {"measurement": "remaining activity at 10 µM", "setting": "ERK7/MAPK15; [1]", "value": 112, "unit": "%"}, {"measurement": "remaining activity at 10 µM", "setting": "ERK7/MAPK15; [2]", "value": 113, "unit": "%"}, {"measurement": "remaining activity at 10 µM", "setting": "ERK7/MAPK15; [3]", "value": 111, "unit": "%"}, {"measurement": "remaining activity at 10 µM", "setting": "ALK; [1]", "value": 101, "unit": "%"}, {"measurement": "remaining activity at 10 µM", "setting": "ALK; [2]", "value": 97.3, "unit": "%"}, {"measurement": "remaining activity at 10 µM", "setting": "ALK; [3]", "value": 105, "unit": "%"}, {"measurement": "remaining activity at 10 µM", "setting": "CDK7/cyclin H; [1]", "value": 96.7, "unit": "%"}, {"measurement": "remaining activity at 10 µM", "setting": "CDK7/cyclin H; [2]", "value": 98.8, "unit": "%"}, {"measurement": "remaining activity at 10 µM", "setting": "CDK7/cyclin H; [3]", "value": 94.6, "unit": "%"}]}]}
